Calls of active or inactive are those of the source.
Key:
[1] = target: T1, Tyrosyl-DNA phosphodiesterase 2 (Homo sapiens, UniProt O95551); experiment: human TDP2 enzyme inhibitors, dose response, biochemical, epi absorbance, IC50 (AID 743297)
T1 sequence (O95551 whole entry): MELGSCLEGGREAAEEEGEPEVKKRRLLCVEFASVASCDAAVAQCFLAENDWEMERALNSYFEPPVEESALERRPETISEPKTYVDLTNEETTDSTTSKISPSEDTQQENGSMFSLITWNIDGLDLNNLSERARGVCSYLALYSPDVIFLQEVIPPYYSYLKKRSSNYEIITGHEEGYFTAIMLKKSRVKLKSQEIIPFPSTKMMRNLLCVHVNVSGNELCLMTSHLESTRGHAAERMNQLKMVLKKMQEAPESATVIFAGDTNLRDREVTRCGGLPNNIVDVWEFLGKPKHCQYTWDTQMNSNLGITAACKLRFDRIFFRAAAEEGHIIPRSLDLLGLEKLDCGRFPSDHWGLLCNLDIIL

[2] = non-specific cell cytotoxicity, dose response, cytotoxicity control for PAX8 inhibitor project, plate reader, dry powder samples (AID 743021); assay type: functional, cell-based
[3] = off-target signal loss in HeLa-CEM21 co-culture – HeLa F-luc CTL cells, cherry-picked, counter-screen for HIV-1 Env fusion inhibitor project, dose response (AID 652040); assay type: functional, cell-based;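 note: potency for signal decrease marking cytotoxic or nonspecific inhibition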
[4] = target: T2, 1-phosphatidylinositol 4,5-bisphosphate phosphodiesterase beta-3 (Homo sapiens, UniProt Q01970); experiment: Fluorescence-based biochemical high throughput dose response assay to identify inhibitors of phospholipase C isozymes (PLC-B3).
T2 sequence (Q01970 whole entry): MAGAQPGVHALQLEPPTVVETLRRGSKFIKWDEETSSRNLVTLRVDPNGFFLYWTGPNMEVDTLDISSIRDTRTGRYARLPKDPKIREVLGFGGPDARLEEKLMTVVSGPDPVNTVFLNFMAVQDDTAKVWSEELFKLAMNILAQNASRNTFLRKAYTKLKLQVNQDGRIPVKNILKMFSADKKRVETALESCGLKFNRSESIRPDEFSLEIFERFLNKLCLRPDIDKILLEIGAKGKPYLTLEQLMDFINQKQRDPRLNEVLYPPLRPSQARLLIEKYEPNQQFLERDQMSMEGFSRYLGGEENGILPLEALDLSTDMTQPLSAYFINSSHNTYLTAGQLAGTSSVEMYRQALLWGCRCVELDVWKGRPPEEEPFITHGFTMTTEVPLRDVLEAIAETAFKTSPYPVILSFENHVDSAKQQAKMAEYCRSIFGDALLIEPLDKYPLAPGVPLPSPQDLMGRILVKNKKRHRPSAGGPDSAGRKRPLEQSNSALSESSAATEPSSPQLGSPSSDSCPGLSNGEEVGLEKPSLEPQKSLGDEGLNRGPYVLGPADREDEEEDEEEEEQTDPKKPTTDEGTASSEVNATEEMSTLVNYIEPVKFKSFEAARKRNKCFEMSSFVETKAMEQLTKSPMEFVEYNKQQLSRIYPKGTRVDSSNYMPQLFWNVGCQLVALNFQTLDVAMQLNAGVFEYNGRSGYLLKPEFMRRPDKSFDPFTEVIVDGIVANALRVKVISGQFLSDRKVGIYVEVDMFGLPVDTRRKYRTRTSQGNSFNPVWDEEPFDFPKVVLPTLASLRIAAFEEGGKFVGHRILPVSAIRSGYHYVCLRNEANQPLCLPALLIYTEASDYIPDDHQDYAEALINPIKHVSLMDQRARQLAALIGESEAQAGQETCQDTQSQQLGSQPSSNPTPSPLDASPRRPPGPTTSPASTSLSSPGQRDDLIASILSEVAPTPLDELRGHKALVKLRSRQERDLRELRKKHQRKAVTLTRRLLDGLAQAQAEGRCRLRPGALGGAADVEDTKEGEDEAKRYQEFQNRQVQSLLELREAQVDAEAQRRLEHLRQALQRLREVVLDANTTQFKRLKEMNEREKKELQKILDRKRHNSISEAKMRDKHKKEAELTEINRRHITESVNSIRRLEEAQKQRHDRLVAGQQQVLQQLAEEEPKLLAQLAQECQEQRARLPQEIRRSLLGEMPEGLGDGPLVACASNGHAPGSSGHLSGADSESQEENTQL

Streptococcus = experiment: Group A Streptococcus viability loss, dose response, counter-screen for streptokinase expression inhibitor project, luminescence, BacTiterGlo (AID 1915); assay type: functional, organism-based;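 note: potency for reduction of bacterial viability or growth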
[5] = growth suppression of PTEN-null colon cells, dose response, cell-based, HCT116 PTEN knockout (AID 1047); assay type: functional;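 note: HCT116 colon tumor cells with PTEN knocked out; cells exposed to compound for 60 hours before readout; potency for loss of cell viability measured by luminescence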
[6] = target: Serine/threonine-protein kinase TBK1 (Homo sapiens, UniProt Q9UHD2); experiment: Navigating the Kinome. Panel member name: TBK1; assay type: functional
Chain of Serine/threonine-protein kinase TBK1 (Q9UHD2 whole entry): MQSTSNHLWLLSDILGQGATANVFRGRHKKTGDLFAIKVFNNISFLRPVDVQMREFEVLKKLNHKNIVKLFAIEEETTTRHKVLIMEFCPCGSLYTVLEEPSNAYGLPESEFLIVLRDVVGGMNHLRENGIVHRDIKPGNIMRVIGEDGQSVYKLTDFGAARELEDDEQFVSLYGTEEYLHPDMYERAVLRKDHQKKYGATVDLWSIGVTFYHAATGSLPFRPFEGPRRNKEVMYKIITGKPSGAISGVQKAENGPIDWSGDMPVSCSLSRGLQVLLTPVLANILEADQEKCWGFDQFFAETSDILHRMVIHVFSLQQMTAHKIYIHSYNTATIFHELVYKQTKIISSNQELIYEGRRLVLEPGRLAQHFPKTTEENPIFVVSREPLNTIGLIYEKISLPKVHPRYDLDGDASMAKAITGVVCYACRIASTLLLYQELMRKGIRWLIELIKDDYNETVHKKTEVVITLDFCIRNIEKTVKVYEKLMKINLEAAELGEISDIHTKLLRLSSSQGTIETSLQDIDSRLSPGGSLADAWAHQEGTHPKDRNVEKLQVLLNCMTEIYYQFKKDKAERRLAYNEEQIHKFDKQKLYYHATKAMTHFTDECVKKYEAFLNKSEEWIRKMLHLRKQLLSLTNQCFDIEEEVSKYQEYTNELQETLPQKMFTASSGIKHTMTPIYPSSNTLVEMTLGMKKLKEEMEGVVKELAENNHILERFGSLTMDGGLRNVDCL

[7] = target: Mitogen-activated protein kinase kinase kinase kinase 5 (Homo sapiens, UniProt Q9Y4K4); assay type: functional;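 note: measured as one member of a kinome-spanning kinase panel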
Chain of Mitogen-activated protein kinase kinase kinase kinase 5 (Q9Y4K4 whole entry): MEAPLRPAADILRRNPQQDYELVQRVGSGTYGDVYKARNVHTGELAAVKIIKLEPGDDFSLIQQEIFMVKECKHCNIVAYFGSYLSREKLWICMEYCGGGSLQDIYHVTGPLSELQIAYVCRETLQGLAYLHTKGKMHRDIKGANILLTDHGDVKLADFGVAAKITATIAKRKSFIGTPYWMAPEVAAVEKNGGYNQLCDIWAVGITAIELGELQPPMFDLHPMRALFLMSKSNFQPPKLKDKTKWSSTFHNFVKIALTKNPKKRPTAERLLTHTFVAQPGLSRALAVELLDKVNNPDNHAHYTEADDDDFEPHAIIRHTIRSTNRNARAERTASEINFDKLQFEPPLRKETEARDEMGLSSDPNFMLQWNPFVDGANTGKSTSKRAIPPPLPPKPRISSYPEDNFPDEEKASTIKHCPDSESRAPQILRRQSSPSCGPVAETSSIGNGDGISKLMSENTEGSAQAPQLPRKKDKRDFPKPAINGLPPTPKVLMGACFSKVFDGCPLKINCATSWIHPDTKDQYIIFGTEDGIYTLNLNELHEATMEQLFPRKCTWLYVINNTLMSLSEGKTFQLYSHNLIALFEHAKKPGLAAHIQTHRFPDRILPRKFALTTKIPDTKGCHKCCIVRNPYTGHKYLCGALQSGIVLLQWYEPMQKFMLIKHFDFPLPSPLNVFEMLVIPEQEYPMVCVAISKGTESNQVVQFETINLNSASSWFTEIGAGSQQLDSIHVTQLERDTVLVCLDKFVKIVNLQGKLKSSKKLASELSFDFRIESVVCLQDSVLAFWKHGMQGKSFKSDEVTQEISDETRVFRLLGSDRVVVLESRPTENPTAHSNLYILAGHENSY

[8] = target: Non-receptor tyrosine-protein kinase TYK2 (Homo sapiens, UniProt P29597); assay type: functional
Chain of Non-receptor tyrosine-protein kinase TYK2 (P29597 whole entry): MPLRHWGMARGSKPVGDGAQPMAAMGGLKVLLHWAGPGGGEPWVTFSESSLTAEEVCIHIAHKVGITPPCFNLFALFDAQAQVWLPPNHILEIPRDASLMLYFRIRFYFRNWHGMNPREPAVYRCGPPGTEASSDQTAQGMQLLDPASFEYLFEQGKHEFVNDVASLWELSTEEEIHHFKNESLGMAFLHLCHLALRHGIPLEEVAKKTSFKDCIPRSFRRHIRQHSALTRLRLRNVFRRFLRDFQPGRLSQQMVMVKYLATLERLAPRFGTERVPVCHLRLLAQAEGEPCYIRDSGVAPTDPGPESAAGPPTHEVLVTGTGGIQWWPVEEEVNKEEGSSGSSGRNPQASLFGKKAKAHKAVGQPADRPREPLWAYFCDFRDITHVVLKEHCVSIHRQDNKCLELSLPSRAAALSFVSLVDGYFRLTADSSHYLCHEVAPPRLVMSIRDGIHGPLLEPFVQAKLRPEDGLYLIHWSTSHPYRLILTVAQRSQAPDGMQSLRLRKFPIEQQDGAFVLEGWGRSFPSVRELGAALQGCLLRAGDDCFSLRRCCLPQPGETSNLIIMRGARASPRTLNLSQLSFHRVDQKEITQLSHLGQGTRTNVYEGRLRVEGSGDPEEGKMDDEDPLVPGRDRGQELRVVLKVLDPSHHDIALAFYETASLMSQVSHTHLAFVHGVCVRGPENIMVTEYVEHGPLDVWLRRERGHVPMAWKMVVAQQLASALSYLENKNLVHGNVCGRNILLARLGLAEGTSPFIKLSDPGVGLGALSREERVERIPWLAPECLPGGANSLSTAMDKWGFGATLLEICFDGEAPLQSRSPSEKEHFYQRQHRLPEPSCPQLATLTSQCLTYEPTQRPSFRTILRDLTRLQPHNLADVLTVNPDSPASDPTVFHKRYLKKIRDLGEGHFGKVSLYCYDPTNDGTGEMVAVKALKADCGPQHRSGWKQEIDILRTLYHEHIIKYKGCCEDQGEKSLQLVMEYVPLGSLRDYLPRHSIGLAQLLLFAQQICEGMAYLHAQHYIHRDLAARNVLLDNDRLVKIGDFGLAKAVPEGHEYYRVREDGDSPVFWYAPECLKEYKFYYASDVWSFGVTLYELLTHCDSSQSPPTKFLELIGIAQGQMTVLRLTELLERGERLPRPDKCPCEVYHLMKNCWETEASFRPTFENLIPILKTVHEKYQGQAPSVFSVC

[9] = target: High affinity nerve growth factor receptor (Homo sapiens, UniProt P04629); assay type: functional;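 note: NTRK1 tested as one member of a kinome-wide profiling panel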
Chain of High affinity nerve growth factor receptor (P04629 whole entry): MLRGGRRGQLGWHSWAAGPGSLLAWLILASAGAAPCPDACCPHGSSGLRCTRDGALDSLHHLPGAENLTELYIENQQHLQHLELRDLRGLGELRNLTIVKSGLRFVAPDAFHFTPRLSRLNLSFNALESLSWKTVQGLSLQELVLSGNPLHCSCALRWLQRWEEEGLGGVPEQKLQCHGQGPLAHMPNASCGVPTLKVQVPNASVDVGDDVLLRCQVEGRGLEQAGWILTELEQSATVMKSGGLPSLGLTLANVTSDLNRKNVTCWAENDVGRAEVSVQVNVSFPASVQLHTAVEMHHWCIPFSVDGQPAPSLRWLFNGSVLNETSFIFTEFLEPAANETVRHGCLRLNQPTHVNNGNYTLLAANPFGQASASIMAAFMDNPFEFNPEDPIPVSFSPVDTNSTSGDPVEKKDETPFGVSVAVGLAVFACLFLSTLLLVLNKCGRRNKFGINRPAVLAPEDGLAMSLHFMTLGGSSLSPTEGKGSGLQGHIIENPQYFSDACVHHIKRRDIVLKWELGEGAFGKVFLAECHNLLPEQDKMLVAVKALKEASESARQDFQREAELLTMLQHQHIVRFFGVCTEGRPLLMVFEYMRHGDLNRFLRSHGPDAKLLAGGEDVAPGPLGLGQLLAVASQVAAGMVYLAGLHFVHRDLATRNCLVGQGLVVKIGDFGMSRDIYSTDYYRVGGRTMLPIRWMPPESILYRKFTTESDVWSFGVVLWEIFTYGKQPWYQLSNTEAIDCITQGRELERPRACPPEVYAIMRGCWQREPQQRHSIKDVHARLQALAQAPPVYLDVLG

[10] = target: Glycogen synthase kinase-3 beta (Homo sapiens, UniProt P49841); assay type: functional;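 note: value comes from a broad kinome profiling panel, with GSK3B as the panel member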
Chain of Glycogen synthase kinase-3 beta (P49841 whole entry): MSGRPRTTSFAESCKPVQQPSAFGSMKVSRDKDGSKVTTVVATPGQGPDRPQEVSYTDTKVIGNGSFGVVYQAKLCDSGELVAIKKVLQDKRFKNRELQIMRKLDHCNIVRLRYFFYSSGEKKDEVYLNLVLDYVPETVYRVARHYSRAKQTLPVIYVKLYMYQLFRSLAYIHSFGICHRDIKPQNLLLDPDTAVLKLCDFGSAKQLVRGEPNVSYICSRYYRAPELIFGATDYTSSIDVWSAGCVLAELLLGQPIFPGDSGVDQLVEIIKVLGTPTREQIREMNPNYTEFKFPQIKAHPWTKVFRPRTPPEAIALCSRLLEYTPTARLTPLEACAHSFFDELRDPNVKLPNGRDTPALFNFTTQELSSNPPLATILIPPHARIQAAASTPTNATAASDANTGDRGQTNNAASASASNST

Structure (SMILES): CCOC(=O)c1c2c(n(Cc3ccccc3)c1C)C(=O)C(=O)c1ccccc1-2
- IC50 [1]: 4.78 µM (active)
- AC50 [2]: 15.7 µM (active)
- AC50 [3]: 6.77 µM (active)
- IC50 [4]: > 123 µM (inactive)

Structure (SMILES): O=C(O)c1ccc2c3c(ncnc13)-c1ccccc1C2=O
- EC50 (Streptococcus): > 150 µM (not active)
- EC50 [5]: 16.1 µM (active)

Structure (SMILES): COc1cc2c(cc1F)C(c1ccccc1Cl)=Nc1c(n[nH]c1C)N2 [RG-1530]
- Ki [6]: > 2.51 µM (inactive)
- Ki [7]: > 2.51 µM (inactive)

Structure (SMILES): Cc1ccc2nccc(NC(=O)Nc3cccc(C(F)(F)F)n3)c2c1
- Ki [8]: > 2 µM (inactive)
- Ki [9]: > 2.51 µM (inactive)

Structure (SMILES): Cc1nn(C)c2sc3c(=O)[nH]cnc3c12
- Ki [10]: 39.8 µM (active)

Source: ChEMBL document CHEMBL1201862, “PubChem BioAssay data set” (2004)
